Entries after “also recorded” stand apart in the source; their conditions may differ.
How the values were obtained:
SARS-CoV-2 = experiment: Reduction of viral nucleic acid load in SARS-CoV-2 infected Vero E6 cells (qRT-PCR of supernatant); assay type: cell-based, SARS-CoV-2 (nCoV-2019BetaCoV/Wuhan/WIV04/2019 strain); conditions: for Copy number of virus genome: Vero E6 cells, 100TCID50, 48 hours
Vero-E6 cells = experiment: Cytotoxicity test of drugs (CCK-8 kit); conditions: 48 hours; for Cell viability (% of vehicle control): Vero-E6 cells
MERS-CoV = conditions: in vitro, cited from earlier work

N=C(N)c1ccc2cc(OC(=O)c3ccc(N=C(N)N)cc3)ccc2c1 [Nafamostat, 6-amidino-2-naphthyl-4-guanidino benzoate]
Copy number of virus genome (SARS-CoV-2; 0.14 µM): 1169068894.5±28678551.13
Copy number of virus genome (SARS-CoV-2; 0.41 µM): 2051893138.5±1115069812.46
Copy number of virus genome (SARS-CoV-2; 1.23 µM): 2805092897.49±419609425.32
Copy number of virus genome (SARS-CoV-2; 3.70 µM): 3601892897.5±680084251.56
Copy number of virus genome (SARS-CoV-2; 11.11 µM): 2116737884±785155013.49
Copy number of virus genome (SARS-CoV-2; 33.33 µM): 1015568394.5±70116949.22
Copy number of virus genome (SARS-CoV-2; 100 µM, copies per milliliter per method): 395904281±285024470.56
Viral RNA load in the cells (in words) (SARS-CoV-2; 48 hours after infection by SARS-CoV-2, Vero E6 cells, FIG. 1(a)): can reduce the viral RNA load
Inhibition of replication of SARS-CoV-2 virus genome in the infected supernatant (in words) (SARS-CoV-2; concentrations of 100 µM, 33 µM, 11.1 µM and 3.7 µM): could effectively inhibit the replication of SARS-CoV-2 virus genome
Cell viability (% of vehicle control) (Vero-E6 cells; 0.14 µM): 103.25±2.53 % of vehicle control
Cell viability (% of vehicle control) (Vero-E6 cells; 0.41 µM): 106.14±1.77 % of vehicle control
Cell viability (% of vehicle control) (Vero-E6 cells; 1.23 µM): 95.85±2.57 % of vehicle control
Cell viability (% of vehicle control) (Vero-E6 cells; 3.70 µM): 94.88±4.44 % of vehicle control
Cell viability (% of vehicle control) (Vero-E6 cells; 11.11 µM): 93.68±1.83 % of vehicle control
Cell viability (% of vehicle control) (Vero-E6 cells; 33.33 µM): 92.64±2.16 % of vehicle control
Cell viability (% of vehicle control) (Vero-E6 cells; 100 µM): 92.65±3.37 % of vehicle control
Cytotoxicity (in words) (Vero-E6 cells; all test concentrations, Vero E6 cells): no cytotoxicity was observed; also recorded: no toxic effect on the cells at all concentrations
IC50 relative to that of Camostat (times higher) (MERS-CoV; versus Camostat): 10 times
IC50 (MERS-CoV; read-out: IC50 (MERS-CoV infection in vitro)): 100 nM

Reference: US20230210807A1, “USE OF BENZOATE COMPOUND IN TREATMENT OF SARS-COV-2 INFECTIONS” (ACADEMY OF MILITARY MEDICAL SCIENCES, priority 2020, published 2023)
